PubChem BioAssay (NCI)
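How tested: cells in 96-well plates exposed to compound for 48 hours at five concentrations. The concentration for full growth arrest is given as TGI.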

Key:
Assay in all cases: NCI anticancer screen, dose series, 48 h
786-0 renal = test system: 786-0 renal
A498 renal = test system: A498 renal
A549 NSCLC = test system: A549 NSCLC
ACHN renal = test system: ACHN renal
BT-549 breast = test system: BT-549 breast
CAKI-1 renal = test system: CAKI-1 renal
CCRF-CEM leukemia = test system: CCRF-CEM leukemia
COLO 205 colon = test system: COLO 205 colon
DU-145 prostate = test system: DU-145 prostate
EKVX NSCLC = test system: EKVX NSCLC
HCT-116 colon = test system: HCT-116 colon
HCT-15 colon = test system: HCT-15 colon
HL-60(TB) leukemia = test system: HL-60(TB) leukemia
HOP-62 NSCLC = test system: HOP-62 NSCLC
HOP-92 NSCLC = test system: HOP-92 NSCLC
HS 578T breast = test system: HS 578T breast
HT29 colon = test system: HT29 colon
IGROV1 ovarian = test system: IGROV1 ovarian
K-562 leukemia = test system: K-562 leukemia
KM12 colon = test system: KM12 colon
LOX IMVI melanoma = test system: LOX IMVI melanoma
M14 melanoma = test system: M14 melanoma
MALME-3M melanoma = test system: MALME-3M melanoma
MCF7 breast = test system: MCF7 breast
MDA-MB-231 breast = test system: MDA-MB-231 breast
MDA-MB-435 = test system: MDA-MB-435
MDA-N = test system: MDA-N
MOLT-4 leukemia = test system: MOLT-4 leukemia
NCI-H226 lung = test system: NCI-H226 lung
NCI-H23 lung = test system: NCI-H23 lung
NCI-H460 lung = test system: NCI-H460 lung
NCI-H522 lung = test system: NCI-H522 lung
NCI/ADR-RES ovarian = test system: NCI/ADR-RES ovarian
OVCAR-3 ovarian = test system: OVCAR-3 ovarian
OVCAR-4 ovarian = test system: OVCAR-4 ovarian
OVCAR-5 ovarian = test system: OVCAR-5 ovarian
OVCAR-8 ovarian = test system: OVCAR-8 ovarian
PC-3 prostate = test system: PC-3 prostate
RPMI-8226 leukemia = test system: RPMI-8226 leukemia
RXF 393 renal = test system: RXF 393 renal
SF-268 CNS = test system: SF-268 CNS
SF-295 CNS = test system: SF-295 CNS
SF-539 CNS = test system: SF-539 CNS
SK-MEL-2 melanoma = test system: SK-MEL-2 melanoma
SK-MEL-28 melanoma = test system: SK-MEL-28 melanoma
SK-MEL-5 melanoma = test system: SK-MEL-5 melanoma
SK-OV-3 ovarian = test system: SK-OV-3 ovarian
SN12C renal = test system: SN12C renal
SNB-19 CNS = test system: SNB-19 CNS
SNB-75 CNS = test system: SNB-75 CNS
SR leukemia = test system: SR leukemia
SW-620 colon = test system: SW-620 colon
T-47D breast = test system: T-47D breast
TK-10 renal = test system: TK-10 renal
U251 CNS = test system: U251 CNS
UACC-257 melanoma = test system: UACC-257 melanoma
UACC-62 melanoma = test system: UACC-62 melanoma
UO-31 renal = test system: UO-31 renal
HCC-2998 colon = test system: HCC-2998 colon

Question: What does the source list for CCC1C2Cc3ccc(O)cc3C1(CC)CCN2C (stereo not given)?
Answer: TGI (786-0 renal): > 100 µM; TGI (A498 renal): > 100 µM; TGI (A549 NSCLC): > 100 µM; TGI (ACHN renal): > 100 µM; TGI (BT-549 breast): > 100 µM; TGI (CAKI-1 renal): > 100 µM; TGI (CCRF-CEM leukemia): > 100 µM; TGI (COLO 205 colon): > 100 µM; TGI (DU-145 prostate): > 100 µM; TGI (EKVX NSCLC): > 100 µM; TGI (HCT-116 colon): > 100 µM; TGI (HCT-15 colon): > 100 µM; TGI (HL-60(TB) leukemia): > 100 µM; TGI (HOP-62 NSCLC): > 100 µM; TGI (HOP-92 NSCLC): > 100 µM; TGI (HS 578T breast): > 100 µM; TGI (HT29 colon): > 100 µM; TGI (IGROV1 ovarian): > 100 µM; TGI (K-562 leukemia): > 100 µM; TGI (KM12 colon): > 100 µM; TGI (LOX IMVI melanoma): > 100 µM; TGI (M14 melanoma): > 100 µM; TGI (MALME-3M melanoma): > 100 µM; TGI (MCF7 breast): > 100 µM; TGI (MDA-MB-231 breast): > 100 µM; TGI (MDA-MB-435): > 100 µM; TGI (MDA-N): > 100 µM; TGI (MOLT-4 leukemia): > 100 µM; TGI (NCI-H226 lung): > 100 µM; TGI (NCI-H23 lung): > 100 µM; TGI (NCI-H460 lung): > 100 µM; TGI (NCI-H522 lung): > 100 µM; TGI (NCI/ADR-RES ovarian): > 100 µM; TGI (OVCAR-3 ovarian): > 100 µM; TGI (OVCAR-4 ovarian): > 100 µM; TGI (OVCAR-5 ovarian): > 100 µM; TGI (OVCAR-8 ovarian): > 100 µM; TGI (PC-3 prostate): > 100 µM; TGI (RPMI-8226 leukemia): > 100 µM; TGI (RXF 393 renal): > 100 µM; TGI (SF-268 CNS): > 100 µM; TGI (SF-295 CNS): > 100 µM; TGI (SF-539 CNS): > 100 µM; TGI (SK-MEL-2 melanoma): > 100 µM; TGI (SK-MEL-28 melanoma): > 100 µM; TGI (SK-MEL-5 melanoma): > 100 µM; TGI (SK-OV-3 ovarian): > 100 µM; TGI (SN12C renal): > 100 µM; TGI (SNB-19 CNS): > 100 µM; TGI (SNB-75 CNS): > 100 µM; TGI (SR leukemia): > 100 µM; TGI (SW-620 colon): > 100 µM; TGI (T-47D breast): > 100 µM; TGI (TK-10 renal): > 100 µM; TGI (U251 CNS): > 100 µM; TGI (UACC-257 melanoma): > 100 µM; TGI (UACC-62 melanoma): > 100 µM; TGI (UO-31 renal): > 100 µM

Question: For CC1C2(C)OC(=N)C(C#N)(C(c3ccccc3)O2)C1(C#N)C#N (stereo not given), which TGI (786-0 renal) is on record?
Answer: Its TGI is 51.1 µM.

Question: And the TGI (A498 renal)?
Answer: Its TGI is greater than 100 µM.

Question: What about the TGI (A549 NSCLC) of the same compound?
Answer: The TGI was greater than 100 µM.

Question: And the TGI (ACHN renal)?
Answer: The TGI was greater than 100 µM.

Question: What about the TGI (BT-549 breast) of the same compound?
Answer: Its TGI is greater than 100 µM.

Question: And the TGI (CAKI-1 renal)?
Answer: Its TGI is 26.6 µM.

Question: What about the TGI (CCRF-CEM leukemia) of the same compound?
Answer: Its TGI is 67.6 µM.

Question: What about the TGI (COLO 205 colon) of the same compound?
Answer: The TGI was 30.4 µM.

Question: What about the TGI (DU-145 prostate) of the same compound?
Answer: The TGI was greater than 100 µM.

Question: And the TGI (EKVX NSCLC)?
Answer: The TGI was 56.6 µM.

Question: What about the TGI (HCC-2998 colon) of the same compound?
Answer: The TGI was 22.7 µM.

Question: What about the TGI (HCT-116 colon) of the same compound?
Answer: The TGI was 49.8 µM.

Question: What about the TGI (HCT-15 colon) of the same compound?
Answer: Its TGI is 22.9 µM.

Question: What about the TGI (HL-60(TB) leukemia) of the same compound?
Answer: Its TGI is 40.1 µM.

Question: What about the TGI (HOP-92 NSCLC) of the same compound?
Answer: The TGI was 29.7 µM.

Question: What about the TGI (HS 578T breast) of the same compound?
Answer: The TGI was 78.6 µM.

Question: And the TGI (HT29 colon)?
Answer: Its TGI is 45.8 µM.

Question: What about the TGI (IGROV1 ovarian) of the same compound?
Answer: Its TGI is greater than 100 µM.

Question: And the TGI (K-562 leukemia)?
Answer: Its TGI is greater than 100 µM.

Question: What about the TGI (KM12 colon) of the same compound?
Answer: Its TGI is greater than 100 µM.

Question: And the TGI (LOX IMVI melanoma)?
Answer: The TGI was 36.9 µM.

Question: And the TGI (M14 melanoma)?
Answer: The TGI was 28 µM.

Question: What about the TGI (MALME-3M melanoma) of the same compound?
Answer: The TGI was 90.3 µM.

Question: What about the TGI (MCF7 breast) of the same compound?
Answer: The TGI was 49.3 µM.

Question: And the TGI (MDA-MB-231 breast)?
Answer: The TGI was 35.4 µM.

Question: And the TGI (MDA-MB-435)?
Answer: Its TGI is greater than 100 µM.

Question: And the TGI (MDA-N)?
Answer: The TGI was 44.4 µM.

Question: What about the TGI (MOLT-4 leukemia) of the same compound?
Answer: Its TGI is greater than 100 µM.

Question: And the TGI (NCI-H226 lung)?
Answer: Its TGI is greater than 100 µM.

Question: And the TGI (NCI-H23 lung)?
Answer: The TGI was 78.2 µM.

Question: What about the TGI (NCI-H460 lung) of the same compound?
Answer: Its TGI is 25.1 µM.

Question: What about the TGI (NCI/ADR-RES ovarian) of the same compound?
Answer: Its TGI is greater than 100 µM.

Question: And the TGI (OVCAR-3 ovarian)?
Answer: Its TGI is 29.1 µM.

Question: What about the TGI (OVCAR-5 ovarian) of the same compound?
Answer: Its TGI is 69.5 µM.

Question: And the TGI (OVCAR-8 ovarian)?
Answer: The TGI was greater than 100 µM.

Question: And the TGI (PC-3 prostate)?
Answer: Its TGI is 88.7 µM.

Question: What about the TGI (RXF 393 renal) of the same compound?
Answer: The TGI was 87.5 µM.

Question: What about the TGI (SF-268 CNS) of the same compound?
Answer: The TGI was 76.1 µM.

Question: What about the TGI (SF-295 CNS) of the same compound?
Answer: Its TGI is greater than 100 µM.

Question: And the TGI (SF-539 CNS)?
Answer: Its TGI is 40.3 µM.

Question: What about the TGI (SK-MEL-2 melanoma) of the same compound?
Answer: The TGI was 42.7 µM.

Question: What about the TGI (SK-MEL-5 melanoma) of the same compound?
Answer: Its TGI is 30.3 µM.

Question: And the TGI (SK-OV-3 ovarian)?
Answer: Its TGI is greater than 100 µM.

Question: What about the TGI (SN12C renal) of the same compound?
Answer: Its TGI is 32 µM.

Question: What about the TGI (SNB-19 CNS) of the same compound?
Answer: Its TGI is greater than 100 µM.

Question: And the TGI (SNB-75 CNS)?
Answer: Its TGI is greater than 100 µM.

Question: And the TGI (T-47D breast)?
Answer: Its TGI is 55.3 µM.

Question: And the TGI (TK-10 renal)?
Answer: Its TGI is greater than 100 µM.

Question: And the TGI (U251 CNS)?
Answer: Its TGI is 46.6 µM.

Question: And the TGI (UACC-257 melanoma)?
Answer: The TGI was 68.7 µM.

Question: What about the TGI (UACC-62 melanoma) of the same compound?
Answer: Its TGI is 56.4 µM.

Question: What about the TGI (UO-31 renal) of the same compound?
Answer: Its TGI is greater than 100 µM.
